Like-named read-outs stand apart in the source and are kept apart here.
Key:
SARS-CoV-2 variants [1] = test: microbe, parasite or virus in culture
SARS-CoV-2 variants [2] = conditions: cited from earlier work
[3] = Severe acute respiratory syndrome coronavirus 2, read-out: highest EC50 reported in the literature, corrected for plasma protein binding
[4] = Severe acute respiratory syndrome coronavirus 2, read-out: highest EC90 reported in the literature, corrected for plasma protein binding
[5] = Severe acute respiratory syndrome coronavirus 2, read-out: lowest EC50 reported in the literature, corrected for plasma protein binding
[6] = Severe acute respiratory syndrome coronavirus 2, read-out: lowest EC90 reported in the literature, corrected for plasma protein binding

SMILES	EC50 (SARS-CoV-2 variants [1]; [3]) [nM]	EC90 (SARS-CoV-2 variants [1]; [4]) [nM]	EC50 (SARS-CoV-2 variants [1]; [5]) [nM]	EC90 (SARS-CoV-2 variants [1]; [6]) [nM]	EC50 (SARS-CoV-2 variants [2]) [nM]	EC90 (SARS-CoV-2 variants [2]) [nM]
N#C[C@@]1(c2ccc3c(N)ncnn23)O[C@H](CO)[C@@H](O)[C@H]1O [GS-441524]	5710	3980	80	720	80 to 5600	710 to 3900
CCC(CC)COC(=O)[C@H](C)N[P@](=O)(OC[C@H]1O[C@@](C#N)(c2ccc3c(N)ncnn23)[C@H](O)[C@@H]1O)Oc1ccccc1 [Remdesivir, reference compound]	14200	25800	8	180	1 to 1700	22 to 3100

Reference: PMC12064607 (Clinical Pharmacokinetics, 2025)
